# Laboratory results reported in patent publication US8207142B2, “Inhibitor of DNA methylation” (priority 2001, dated 2012).
# Tested on: N. crassa
# Format: cell-based
# Conditions: Neurospora crassa, 400 nmoles
# Experimental: Strains with mutations in dim-2 lack all detectable methyltransferase activity. A dim-2 strain (N613) and a wild-type control (N242) were challenged with a high concentration of Zebularine. The concentration of Zebularine is indicated above the plates and was applied to the paper disc as in FIG. 5; no hygromycin was applied to these plates.
# Plate tests were performed with solidified medium essentially as previously described (Selker, Proc. Natl. Acad. Sci. USA 95;9430-9435, 1998). In brief, approximately 2,000 N. crassa conidia of the indicated were plated on each plate. Drugs were administered from a 4-mm diameter Whatman™ no. 1 paper disk placed in the middle of each plate shortly after plating.
# Strains with mutations in dim-2 lack all detectable methyltransferase activity (Kouzminova and Selker, “Dim-2 encodes a DNA-methyltransferase responsible for all known cytosine methylation in Neurospora,” EMBO J. Aug. 1, 2001). In order to examine whether Zebularine toxicity is mediated by its methyltransferase-inhibitory activity, dim-2 strain (N613) and a wild-type control (N242) were challenged with a high concentration (400 nmoles) of Zebularine. No hygromycin was applied to these plates.
compound,measurement,value
"O=c1ncccn1[C@@H]1O[C@H](CO)[C@@H](O)[C@H]1O [Zebularine, 1-β-ribofuranosyl-1,2-dihydropyrimidin-2-one]","region of conidia toxicity around the filter disk, dim-2 vs wild type",roughly equivalent in both dim-2 and wildtype strains
